We go through four molecules from ChEMBL document CHEMBL1201862, “PubChem BioAssay data set” (2004).

Activity calls are given as the source filed them.

What all share (type): functional
Assay [1] concerns the target Intestinal-type alkaline phosphatase (Mus musculus, UniProt P24822). Description: PubChem AID 488785.
Assay [2] has as its target T1, Ubiquitin-conjugating enzyme E2 N (Homo sapiens, UniProt P61088).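 Also: Dose-response confirmation in a TR-FRET assay detecting UBC13-driven polyubiquitin chain formation, inhibition measured.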
T1 sequence (P61088 whole entry): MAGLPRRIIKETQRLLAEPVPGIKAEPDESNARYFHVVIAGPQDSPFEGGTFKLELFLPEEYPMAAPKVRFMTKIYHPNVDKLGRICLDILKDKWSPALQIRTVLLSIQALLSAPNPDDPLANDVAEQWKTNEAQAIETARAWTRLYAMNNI

Assay [3] has as its target Photoreceptor-specific nuclear receptor (Homo sapiens, UniProt Q9Y5X4).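 Also: potency for compounds that break the NR2E3 corepressor complex and count as activators.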
The target in assay [4] is Platelet-derived growth factor receptor beta (Homo sapiens, UniProt P09619).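 Also: value comes from a kinome panel, with PDGFRB tested as one panel member.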
Chain of Platelet-derived growth factor receptor beta (P09619 whole entry): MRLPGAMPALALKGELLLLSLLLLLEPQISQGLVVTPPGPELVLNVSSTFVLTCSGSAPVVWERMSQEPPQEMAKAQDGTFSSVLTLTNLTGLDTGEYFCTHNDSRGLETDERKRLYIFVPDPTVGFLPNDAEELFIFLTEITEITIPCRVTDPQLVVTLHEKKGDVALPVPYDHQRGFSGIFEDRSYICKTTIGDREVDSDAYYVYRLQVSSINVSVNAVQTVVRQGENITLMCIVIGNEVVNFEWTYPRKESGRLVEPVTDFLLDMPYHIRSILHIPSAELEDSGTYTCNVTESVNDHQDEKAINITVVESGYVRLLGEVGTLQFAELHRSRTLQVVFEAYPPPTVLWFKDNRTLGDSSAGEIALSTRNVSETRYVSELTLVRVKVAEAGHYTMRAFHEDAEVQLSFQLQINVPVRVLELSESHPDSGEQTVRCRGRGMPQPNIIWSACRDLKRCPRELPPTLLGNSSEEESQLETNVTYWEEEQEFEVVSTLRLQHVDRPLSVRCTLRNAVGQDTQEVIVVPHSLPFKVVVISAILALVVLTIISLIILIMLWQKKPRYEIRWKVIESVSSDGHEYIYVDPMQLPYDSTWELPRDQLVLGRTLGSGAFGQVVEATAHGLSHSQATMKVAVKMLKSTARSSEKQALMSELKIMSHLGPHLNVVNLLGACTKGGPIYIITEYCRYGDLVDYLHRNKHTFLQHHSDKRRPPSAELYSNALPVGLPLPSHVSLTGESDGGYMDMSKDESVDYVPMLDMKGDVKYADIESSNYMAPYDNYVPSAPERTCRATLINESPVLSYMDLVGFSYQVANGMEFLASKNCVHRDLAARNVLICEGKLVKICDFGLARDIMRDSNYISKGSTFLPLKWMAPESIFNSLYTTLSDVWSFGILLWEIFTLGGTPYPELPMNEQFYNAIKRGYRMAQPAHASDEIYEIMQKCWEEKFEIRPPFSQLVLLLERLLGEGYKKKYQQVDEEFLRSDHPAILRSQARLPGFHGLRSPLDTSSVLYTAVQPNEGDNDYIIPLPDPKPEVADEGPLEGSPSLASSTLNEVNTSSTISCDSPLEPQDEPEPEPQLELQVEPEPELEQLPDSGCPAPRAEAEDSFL
Assay [5] deals with T2, Orexin/Hypocretin receptor type 1 (Homo sapiens, UniProt O43613).
T2 sequence (O43613 whole entry): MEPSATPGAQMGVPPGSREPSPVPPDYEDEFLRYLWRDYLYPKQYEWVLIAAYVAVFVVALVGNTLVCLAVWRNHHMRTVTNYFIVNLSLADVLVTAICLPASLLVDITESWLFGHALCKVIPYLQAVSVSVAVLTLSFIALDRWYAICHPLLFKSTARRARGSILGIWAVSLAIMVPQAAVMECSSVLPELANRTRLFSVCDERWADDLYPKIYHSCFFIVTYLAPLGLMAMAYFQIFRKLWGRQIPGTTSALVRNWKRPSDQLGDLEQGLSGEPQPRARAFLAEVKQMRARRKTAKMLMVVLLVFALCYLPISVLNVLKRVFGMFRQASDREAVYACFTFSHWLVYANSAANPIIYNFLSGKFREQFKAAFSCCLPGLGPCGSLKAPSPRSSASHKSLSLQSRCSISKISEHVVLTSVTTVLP
The assay is described as follows: Homogeneous Time Resolved Fluorescence (HTRF)-based cell-based high throughput dose response assay for antagonists of the orexin 1 receptor (OX1R; HCRTR1). [Related pubchem assays (depositor defined):AID434989, AID435008, AID463079, AID485270, AID492963, AID492964, AID492965, AID493232, AID504717, AID504718]. In general terms: Time-resolved FRET reads energy transfer from a long-lived donor to a nearby acceptor.

The target of another assay is Orexin receptor type 2 (Homo sapiens, UniProt O43614). The assay is described as follows: Counterscreen assay for antagonists of the orexin 1 receptor (OX1R; HCRTR1): Homogeneous Time Resolved Fluorescence (HTRF)-based cell-based dose response assay for antagonists of the orexin 2 receptor (OX2R; HCRTR2), run by assay provider.
Chain of Orexin receptor type 2 (O43614 whole entry, the tested form may be a part): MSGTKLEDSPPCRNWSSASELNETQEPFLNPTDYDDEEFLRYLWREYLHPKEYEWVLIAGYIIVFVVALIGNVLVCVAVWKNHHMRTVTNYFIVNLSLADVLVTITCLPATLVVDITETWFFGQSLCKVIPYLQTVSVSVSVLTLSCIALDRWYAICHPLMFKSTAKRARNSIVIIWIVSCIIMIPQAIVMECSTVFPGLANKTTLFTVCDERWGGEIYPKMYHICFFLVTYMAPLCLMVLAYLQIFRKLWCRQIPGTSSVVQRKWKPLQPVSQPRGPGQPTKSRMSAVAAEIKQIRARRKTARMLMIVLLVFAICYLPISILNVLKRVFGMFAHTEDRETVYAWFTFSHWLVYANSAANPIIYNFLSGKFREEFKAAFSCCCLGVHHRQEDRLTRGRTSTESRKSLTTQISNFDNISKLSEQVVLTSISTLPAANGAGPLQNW
Assay [6] can be described thus: Fluorescence-based cell-based high throughput dose response assay for inhibitors of the interaction of nucleotide-binding oligomerization domain containing 2 (NOD2) and the receptor-interacting serine-threonine kinase 2 (RIPK2). Conditions: Homo sapiens.
A short description of assay [7]: HEK293T cytotoxicity, dose response, cytotoxicity control for miR-122 modulator project, cell-based, activator set, cherry-pick (AID 720690).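 Also: HEK293T human cells scored for general mammalian cytotoxicity.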
For assay [8], the target named is T3, Replicative DNA helicase DnaB (Mycobacterium tuberculosis, UniProt P9WMR3).
T3 sequence (P9WMR3 whole entry): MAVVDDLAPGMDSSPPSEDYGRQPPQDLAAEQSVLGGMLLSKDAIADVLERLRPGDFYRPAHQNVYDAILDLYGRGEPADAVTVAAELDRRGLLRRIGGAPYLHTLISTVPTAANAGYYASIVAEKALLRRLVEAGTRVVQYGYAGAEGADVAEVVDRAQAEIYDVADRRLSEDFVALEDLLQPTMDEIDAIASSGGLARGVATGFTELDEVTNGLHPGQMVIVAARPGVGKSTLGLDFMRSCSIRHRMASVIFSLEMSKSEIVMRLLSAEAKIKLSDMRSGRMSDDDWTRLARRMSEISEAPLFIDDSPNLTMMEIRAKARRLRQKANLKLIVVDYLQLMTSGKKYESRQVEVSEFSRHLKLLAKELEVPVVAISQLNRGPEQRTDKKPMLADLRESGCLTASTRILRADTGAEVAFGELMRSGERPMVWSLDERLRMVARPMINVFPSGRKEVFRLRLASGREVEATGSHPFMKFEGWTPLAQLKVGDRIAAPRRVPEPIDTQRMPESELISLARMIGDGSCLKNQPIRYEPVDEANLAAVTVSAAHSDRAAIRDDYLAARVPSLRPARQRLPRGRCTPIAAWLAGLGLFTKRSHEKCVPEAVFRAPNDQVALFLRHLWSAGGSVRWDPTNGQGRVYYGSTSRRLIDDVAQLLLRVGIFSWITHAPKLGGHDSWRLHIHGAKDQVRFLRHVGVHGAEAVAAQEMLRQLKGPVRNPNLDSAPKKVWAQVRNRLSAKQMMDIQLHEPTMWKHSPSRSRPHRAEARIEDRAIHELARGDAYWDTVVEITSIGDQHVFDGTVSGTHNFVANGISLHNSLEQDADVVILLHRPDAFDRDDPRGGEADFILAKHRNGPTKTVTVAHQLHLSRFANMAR
The assay is described as follows: DnaB intein splicing inhibitors, dose response, biochemical, cell-free fluorescence (AID 449749).

Another assay deals with CHO-K1. The assay is described as follows: Counterscreen for antagonists of the orexin 1 receptor (OX1R; HCRTR1): Homogeneous time resolved fluorescence (HTRF)-based cell-based dose response assay to identify antagonists of the parental CHO-K1 cell line. [Related pubchem assays (depositor defined):AID434989, AID435008, AID463079, AID485270, AID492963, AID492964, AID492965, AID493232, AID504699, AID504701]. Conditions: Cricetulus griseus. On the technique in general: Counterscreens check selectivity or assay interference.

Assay [9] concerns the target Sphingosine 1-phosphate receptor 4 (Homo sapiens, UniProt O95977). Description: Fluorescence dose response cell-based high throughput screening assay for antagonists of the Sphingosine 1-Phosphate Receptor 4 (S1P4). [Related pubchem assays: 1524 (Confirmation in triplicates.), 1510 (Primary screen.)].
Assay [10] has as its target T2, Orexin/Hypocretin receptor type 1. Description: Fluorescence-based cell-based high throughput dose response assay for antagonists of the orexin 1 receptor (OX1R; HCRTR1). [Related pubchem assays (depositor defined):AID434989, AID435008, AID463079, AID485270, AID492963, AID492964, AID492965, AID493232, AID504717, AID504718].
The next assay addresses Activin receptor type-1 (Homo sapiens, UniProt Q04771). The assay is described as follows: Navigating the Kinome. Panel member name: ACVR1.

Chain of Intestinal-type alkaline phosphatase (P24822 whole entry): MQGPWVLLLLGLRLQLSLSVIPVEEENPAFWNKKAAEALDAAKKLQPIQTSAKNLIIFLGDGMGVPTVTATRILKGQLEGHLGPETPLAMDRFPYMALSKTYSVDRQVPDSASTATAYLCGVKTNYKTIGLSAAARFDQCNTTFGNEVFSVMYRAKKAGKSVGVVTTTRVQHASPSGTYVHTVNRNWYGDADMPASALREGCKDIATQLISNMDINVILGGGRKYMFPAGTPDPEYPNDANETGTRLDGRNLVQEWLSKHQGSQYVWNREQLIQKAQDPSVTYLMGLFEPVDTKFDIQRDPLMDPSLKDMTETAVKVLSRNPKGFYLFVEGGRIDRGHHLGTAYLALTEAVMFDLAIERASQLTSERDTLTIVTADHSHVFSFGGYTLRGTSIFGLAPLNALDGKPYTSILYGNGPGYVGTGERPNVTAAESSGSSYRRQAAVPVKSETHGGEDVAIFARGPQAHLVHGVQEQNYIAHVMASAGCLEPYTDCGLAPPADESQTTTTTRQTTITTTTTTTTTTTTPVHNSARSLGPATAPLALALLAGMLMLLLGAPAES
Chain of Photoreceptor-specific nuclear receptor (Q9Y5X4 whole entry): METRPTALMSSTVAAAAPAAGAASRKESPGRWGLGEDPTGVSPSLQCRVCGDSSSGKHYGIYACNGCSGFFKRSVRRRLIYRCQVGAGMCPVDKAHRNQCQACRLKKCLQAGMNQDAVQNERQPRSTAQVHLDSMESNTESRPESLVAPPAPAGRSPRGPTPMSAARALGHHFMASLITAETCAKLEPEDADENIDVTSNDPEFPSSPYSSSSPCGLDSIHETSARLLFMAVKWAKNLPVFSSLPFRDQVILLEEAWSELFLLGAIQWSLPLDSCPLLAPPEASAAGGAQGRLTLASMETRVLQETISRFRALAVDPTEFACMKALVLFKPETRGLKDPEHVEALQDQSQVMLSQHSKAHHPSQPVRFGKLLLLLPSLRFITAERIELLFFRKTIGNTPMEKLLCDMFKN
Chain of Sphingosine 1-phosphate receptor 4 (O95977 whole entry): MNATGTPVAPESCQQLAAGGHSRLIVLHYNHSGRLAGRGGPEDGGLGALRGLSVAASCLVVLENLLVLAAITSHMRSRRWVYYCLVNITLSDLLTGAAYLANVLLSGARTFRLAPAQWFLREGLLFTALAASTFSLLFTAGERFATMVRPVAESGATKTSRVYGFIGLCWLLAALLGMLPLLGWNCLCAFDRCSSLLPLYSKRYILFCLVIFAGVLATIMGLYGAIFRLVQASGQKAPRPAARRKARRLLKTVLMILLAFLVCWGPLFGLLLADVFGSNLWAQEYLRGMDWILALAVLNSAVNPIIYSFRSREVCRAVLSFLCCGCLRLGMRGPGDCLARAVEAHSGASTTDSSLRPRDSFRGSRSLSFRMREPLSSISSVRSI
Chain of Activin receptor type-1 (Q04771 whole entry): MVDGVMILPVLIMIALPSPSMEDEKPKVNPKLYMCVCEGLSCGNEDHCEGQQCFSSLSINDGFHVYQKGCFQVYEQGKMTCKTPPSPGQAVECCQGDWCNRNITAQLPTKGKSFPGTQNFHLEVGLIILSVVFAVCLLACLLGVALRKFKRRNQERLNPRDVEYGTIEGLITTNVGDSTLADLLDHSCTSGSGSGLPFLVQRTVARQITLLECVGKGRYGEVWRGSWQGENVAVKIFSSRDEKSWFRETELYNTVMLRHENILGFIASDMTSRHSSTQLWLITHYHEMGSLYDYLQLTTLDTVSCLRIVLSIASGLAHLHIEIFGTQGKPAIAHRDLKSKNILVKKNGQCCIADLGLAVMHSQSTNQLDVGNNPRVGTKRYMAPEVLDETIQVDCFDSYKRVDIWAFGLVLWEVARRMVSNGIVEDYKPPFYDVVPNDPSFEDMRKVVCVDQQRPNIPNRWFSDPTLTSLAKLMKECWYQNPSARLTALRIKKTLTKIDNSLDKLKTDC

Take `O=C(O)CC(C(=O)O)N1C(=O)/C(=C/C=C/c2ccco2)SC1=S` (stereo not drawn): the IC50 in [1] is 30.4 µM (active); in assay [2] it was > 20 µM (inactive); in assay [3], > 39.8 µM (not active).
`O=C(Nc1cccc(C2Nc3ccc4ccccc4c3C3C=CCC32)c1)c1ccc(F)cc1` (stereo not drawn): the Ki in [4] is 1.58 µM (active).
As for `Cc1ccc(C(=O)OCn2ncc(Cl)c(Cl)c2=O)cc1`, the IC50 is 17.4 µM (inactive) in assay [5]; > 50 µM (inactive) at Orexin receptor type 2; 0.889 µM (active) in [6]; > 66.2 µM (inactive) in the assay with CHO-K1; 1.27 µM (active) in assay [9]; 6.12 µM (active) in [10]. For the same molecule, the AC50 is 4.47 µM (active) in assay [7] and 3.66 µM (active) in assay [8].
Consider `Cc1ccc(-c2cc(-c3cc(Br)ccc3O)[nH]c(=O)c2C#N)s1`, for which, on Activin receptor type-1, the Ki was > 3.98 µM (inactive).

One may read the IC50 as the midpoint of a concentration-inhibition curve. What is called Ki is the equilibrium dissociation constant of an inhibitor or competing ligand from its target. Usually AC50 stands for the concentration at which the activity in the assay is half-maximal.
